These results are taken from patent US7371364B2, “Cyclic peptide and imaging compound compositions and uses for targeted imaging and therapy” (Board of Regents, The University of Texas System, priority 2003, dated 2008).

Positions of bridges follow the written chain, without caps; N, C: chain ends. No end group written: not given here.

Assay [1] has as its system KS1767 tumors. Kind of assay: In vivo NIR imaging of subcutaneous KS1767 tumors with RGD imaging agent. Set-up: species or system mice. To be noted: subcutaneous KS1767 tumors, i.v. 6 nmol/mouse, image 24 hours after injection. The text has this: Cy5.5-c(KRGDf; SEQ ID NO. 3) may be used in near infrared (NIR) imaging. Mice inoculated with KS1767 were used for in vivo NIR studies. The mice were four to six week-old athymic nude mice (18-22 g, Harlan Sprague Dawley, Inc. Indianapolis, Ind.) which were housed 5 per cage and fed with sterilized pellet chow (Harlan Sprague Dawley) and sterilized water. The animals were maintained in a pathogen-free mouse colony in the Department of Veterinary Medicine at the University of Texas M.D. Anderson Cancer Center. All experiments were performed in accordance with the guidelines of the Institutional Animal Care and Use Committee.
Tumor cells for use in the animals were harvested near confluence by incubation with 0.05% trypsin-EDTA. Cells were pelleted by centrifugation at 450×g for 5 minutes and resuspended in sterile PBS. […] cells/animal were implanted subcutaneously into the chest wall or hind legs of the mice. Imaging studies were performed when tumors reached 4-6 mm in average diameter.
In vivo fluorescence imaging was accomplished by illuminating the animal with light from a laser diode (35 mW) expanded to an approximate 8 cm diameter circular area. The fluorescent light re-emitted from the animal was collected by an image intensifier (model FS9910C, ITT Night Vision, Roanoke, Va.) lens-coupled to a CCD camera (model CH350, Photometrics, Tucson, Ariz.). The imaging was designed so that the field of view could be varied from 3×3 cm to over 12×12 cm by varying the image distance of the 50 mm lens used to focus the image onto the photocathode of the intensifier. The lens was fitted with a holographic notch-plus filter (660 nm center wavelength; Kaiser Optical Systems, Inc., Ann Arbor, Mich.) and a bandpass filter (710 nm center wavelength) to reject back-scattered and reflected excitation photons. Image acquisition was accomplished using V++ software (Digital Optics, Auckland, New Zealand) and the obtained images were stored in uncompressed tagged image file format (tiff). Data processing and analysis were accomplished using Matlab software (The MathWorks, Inc., Natick, Mass.). For all imaging sessions, the image acquisition parameters were kept constant, and each image required 800 ms of camera integration.
For dynamic in vivo fluorescence imaging, mice were anesthetized with an i.p. injection of 50 mg/kg pentobarbital, and a catheter was placed in the tail vein for i.v. injection of NIR dyes. A white-light image of the animal was obtained using a low-power lamp as a white light source with holographic and interference filters removed. Fluorescence images were then acquired as a function of time following administration of Cy5.5 (6 nmol per/mouse) or Cy5.5-c(KRGDf; SEQ ID NO. 3) (6 nmol per/mouse). […]

The test system of assay [2] is human tumor cells. Nature of the assay: In vitro tumor cell binding study (fluorescence microscopy). Type of assay: cell-based. To be noted: SKBr-3, HT1080, MDA-MB-435, MDA-MB-468, U87 (PC-3 and U87 for the Tyr analogue); 37° C. The procedure: All human tumor cell-lines were obtained from American Type Culture Collection (Rockville, Md.) and were maintained at 37° C. in a humidified atmosphere containing 5% CO2 in Dulbecco's Modified Eagle's Medium/Nutrient Mixture F-12 Ham (DMEM/F12) and 10% FBS (Gibco, Grand Island, N.Y.).
Cells were seeded on cover slips in 24-well plates (Becton Dickinson Labware, Franklin Lakes, N.J.) and incubated in DMEM/F12 culture medium (0.5 ml/well) overnight. Cy5.5 and Cy5.5-HWG polypeptide imaging agents were added into each well at the indicated concentrations. For the blocking study, doxycycline was added to the culture medium followed by the addition of Cy5.5-HWG polypeptide imaging agent 1 hour later. After an incubation period of 5-60 minutes at 37° C., cells were washed twice with PBS and incubated in a solution of Sytox Green in 95% ethyl alcohol (1 μM, Molecular Probe, Eugene, Oreg.) for 15 minutes to fix and stain cell nuclei. For staining of MMP expression, cells that were pretreated with Cy5.5-HWG polypeptide and stained with Sytox Green were incubated with anti-MMP antibody (Sigma) (1 mg/ml; 1:200 dilution) for 1 hour at room temperature. The cells were then washed and incubated with Texas Red conjugated go at anti-rabbit IgG (Molecular Probe, 4 μg/ml) at room temperature for 1 hour. Cells were washed again with PBS and the cover slips were mounted for microscopic examination using a DMR microscope (Leica Microsystems, Inc., Brannockburn, Ill.). The microscope was equipped with a 75W Xenon lamp, 775 nm/845 nm, 560 nm/645 nm, and 480 nm/535 nm (Excitation/emission) filters (Chroma Technology Corp., Brattleboro, Vt.), a Hamamatsu B/W Chilled CCD camera (Hamamatsu Photonics K.K., Hamamatsu City, Japan), and Image-Pro Plus 4.5.1 software (Media Cybernetics, Silver Spring, Md.). In the multiple staining images, Cy5.5, MMPs, and Sytox Green were pseudocolored red, green, and blue, respectively.

For assay [3], the system named is SKBr-3 tumors. Nature of the assay: In vivo NIR fluorescent imaging with HWG imaging agent. Set-up: species or system mice. To be noted: 4 days after i.v. injection, 15 nmol per mouse. The procedure:
Four to six week-old athymic nude mice (18-22 g, Harlan Sprague Dawley, Inc., Indianapolis, Ind.) were housed 5 per cage with sterilized pet chow (Harlan Sprague Dawley) and sterilized water. Animals were maintained in a pathogen-free mouse colony in the Department of Veterinary Medicine at the University of Texas M.D. Anderson Cancer Center. All experiments were performed in accordance with the guidelines of the Institutional Animal Care and Use Committee. Tumor cells were harvested near confluence by incubation with 0.05% trypsin-EDTA. Cells were pelleted by centrifugation at 450×g for 5 minutes and resuspended in sterile PBS. Cells (2-3×10^6/animal) were implanted subcutaneously into the chest wall or the hind legs of the mice. Human PC-3 prostate tumors were obtained by intratibia injection of PC-3 cells into male nude mice. Human U87 glioma tumors were obtained by intracranial injection.
In vivo fluorescence imaging was accomplished by illuminating the animal with light from a laser diode (785 nm, 80 mW for IGC; 660 nm, 35 mW for Cy 5.5 dyes) expanded to an approximate 8 cm diameter circular area. The re-emitted fluorescent light was collected by an image intensifier (model FS9910C, ITT Night Vision, Roanoke, Va.) lens-coupled to a CCD camera (model CH350, Photometrics, Tucson, Ariz.). The imaging was designed so that the field of view could be varied from 3×3 cm to over 12×12 cm by varying the image distance of the 50 mm lens used to focus the image onto the photocathode of the intensifier. The lens was fitted with a holographic notch-plus filter (785 nm center wavelength for ICG and 660 nm center wavelength for Cy5.5 dyes; Kaiser Optical Systems, Inc., Ann Arbor, Mich.) and a bandpass filter (830 nm center wavelength for ICG, 710 nm center wavelength for Cy5.5 dyes) to reject back-scattered and reflected excitation photons. Image acquisition was accomplished using V++ software (Digital Optics, Auckland, New Zealand) and obtained images were stored in uncompressed tagged image file format (tiff). Data processing and analysis was accomplished using Matlab software (The Math Works, Inc., Natick, Mass.).

Assay [4] has as its target T1, pre-activated MMP-2 (gelatinase A), Chemicon assay (UniProt P08253 110-660, limits assumed).
T1 sequence (looked up): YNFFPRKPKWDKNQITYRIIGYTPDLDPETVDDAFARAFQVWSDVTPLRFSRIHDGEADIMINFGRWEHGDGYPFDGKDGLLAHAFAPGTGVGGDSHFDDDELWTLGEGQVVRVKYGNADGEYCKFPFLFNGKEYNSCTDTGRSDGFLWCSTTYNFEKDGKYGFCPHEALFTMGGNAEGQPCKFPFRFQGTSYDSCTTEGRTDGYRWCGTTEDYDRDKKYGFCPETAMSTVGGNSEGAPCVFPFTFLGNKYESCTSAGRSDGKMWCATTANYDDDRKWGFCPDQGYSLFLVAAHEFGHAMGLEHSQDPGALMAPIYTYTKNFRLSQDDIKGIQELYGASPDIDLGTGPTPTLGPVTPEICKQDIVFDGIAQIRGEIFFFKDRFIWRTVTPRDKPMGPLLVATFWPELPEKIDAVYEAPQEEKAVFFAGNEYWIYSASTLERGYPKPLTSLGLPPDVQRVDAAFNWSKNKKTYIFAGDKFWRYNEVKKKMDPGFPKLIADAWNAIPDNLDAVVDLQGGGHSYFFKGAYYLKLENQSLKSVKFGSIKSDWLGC
Kind of assay: cell-based or functional assay.

For assay [5], the target named is T2, αvβ3 integrin (on KS1767 cells) (UniProt P06756 31-1048; P05106 27-788).
T2 construct: whole, on cells; also called integrin αvβ3
Kind of assay: control in the KS1767 cell adhesion assay on vitronectin-coated wells (FIG. 31). Here is the method: A Cell Adhesion Assay was additionally performed. KS1767 cells were seeded in DMEM/F12 culture medium supplemented with 10% fetal bovine serum for 24 hr. Cells (1×10^5) with different concentrations of c(KRGDf; SEQ ID NO. 3) or Cy5.5-c(KRGDf; SEQ ID NO. 3) were added to vitronectin-coated microliter wells under serum-free conditions and incubated at 37° C. for 1 hr. After washing steps, the bound cells were stained with 5% crystal violet, followed by addition of 0.1M HCl to each well. The concentrations of crystal violet were determined by UV/V is absorption at 627 nm. $IC50$ values were estimated from the dose-activity curves.

T2 sequence (P06756 31-1048, chain 1 of 2): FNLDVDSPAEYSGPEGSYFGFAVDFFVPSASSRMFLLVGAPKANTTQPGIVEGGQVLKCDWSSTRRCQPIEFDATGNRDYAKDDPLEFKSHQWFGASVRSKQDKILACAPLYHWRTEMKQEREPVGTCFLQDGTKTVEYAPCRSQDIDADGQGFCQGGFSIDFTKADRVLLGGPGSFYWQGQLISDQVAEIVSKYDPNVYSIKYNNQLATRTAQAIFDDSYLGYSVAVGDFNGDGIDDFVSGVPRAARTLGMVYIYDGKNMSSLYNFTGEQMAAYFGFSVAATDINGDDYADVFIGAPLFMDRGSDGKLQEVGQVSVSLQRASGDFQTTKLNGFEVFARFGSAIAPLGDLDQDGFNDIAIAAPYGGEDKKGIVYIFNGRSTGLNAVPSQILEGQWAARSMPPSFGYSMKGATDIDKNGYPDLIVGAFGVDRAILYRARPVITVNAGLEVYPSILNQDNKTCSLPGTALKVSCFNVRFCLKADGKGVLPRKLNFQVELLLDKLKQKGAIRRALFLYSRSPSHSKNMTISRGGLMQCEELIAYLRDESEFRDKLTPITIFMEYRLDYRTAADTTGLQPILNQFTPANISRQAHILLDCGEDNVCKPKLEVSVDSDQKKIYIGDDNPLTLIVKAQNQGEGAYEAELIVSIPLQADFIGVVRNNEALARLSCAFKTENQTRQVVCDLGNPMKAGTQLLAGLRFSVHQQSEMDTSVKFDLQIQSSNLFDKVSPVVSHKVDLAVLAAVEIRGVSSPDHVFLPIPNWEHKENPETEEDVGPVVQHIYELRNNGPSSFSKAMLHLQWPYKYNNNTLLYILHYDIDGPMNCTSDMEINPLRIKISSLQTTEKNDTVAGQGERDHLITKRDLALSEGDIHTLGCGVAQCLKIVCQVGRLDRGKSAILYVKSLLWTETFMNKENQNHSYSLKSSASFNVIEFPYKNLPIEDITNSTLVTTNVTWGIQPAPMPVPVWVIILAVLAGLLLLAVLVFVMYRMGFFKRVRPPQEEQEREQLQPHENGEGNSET
T2 sequence (P05106 27-788, chain 2 of 2): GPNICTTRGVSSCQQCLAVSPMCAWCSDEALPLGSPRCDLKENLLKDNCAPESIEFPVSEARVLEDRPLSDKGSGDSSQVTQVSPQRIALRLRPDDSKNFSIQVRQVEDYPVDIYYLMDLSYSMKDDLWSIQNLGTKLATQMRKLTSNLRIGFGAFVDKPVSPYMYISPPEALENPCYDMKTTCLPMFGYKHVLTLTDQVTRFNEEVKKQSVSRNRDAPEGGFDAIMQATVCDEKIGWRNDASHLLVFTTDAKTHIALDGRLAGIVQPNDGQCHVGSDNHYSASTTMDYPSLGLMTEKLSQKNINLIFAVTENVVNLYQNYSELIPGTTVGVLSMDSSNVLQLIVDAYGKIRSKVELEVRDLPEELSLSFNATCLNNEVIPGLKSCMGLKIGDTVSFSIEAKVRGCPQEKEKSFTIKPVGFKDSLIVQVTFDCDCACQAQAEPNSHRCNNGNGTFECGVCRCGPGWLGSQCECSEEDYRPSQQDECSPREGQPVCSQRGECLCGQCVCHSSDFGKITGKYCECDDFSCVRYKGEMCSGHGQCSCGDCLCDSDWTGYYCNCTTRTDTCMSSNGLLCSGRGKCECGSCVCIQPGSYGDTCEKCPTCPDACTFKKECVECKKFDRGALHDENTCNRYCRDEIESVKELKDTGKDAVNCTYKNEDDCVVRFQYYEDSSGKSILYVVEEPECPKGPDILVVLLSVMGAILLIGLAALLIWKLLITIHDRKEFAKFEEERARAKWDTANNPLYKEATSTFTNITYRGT

Consider Cy5.5 [reference compound], for which the “Tumor targeting / uptake in NIR image” value in assay [1] is reported as “almost no optical activity uptake”. For the same molecule, the “Binding to tumor cells” value in assay [2] is “did not display significant binding”. Also, the “Fluorescent signal in tumor” value in assay [3] is recorded as “minimal fluorescence”.

B1: c(KAHWGFTLD)NH2 (SEQ ID NO. 10) (side chain-to-side chain linkage) (peptide)
peptide: KAHWGFTLD
HELM: PEPTIDE1{K.A.H.W.G.F.T.L.D.[am]}$PEPTIDE1,PEPTIDE1,1:R3-9:R3$$$V2.0; N-terminus assumed
SMILES: CC(C)C[C@@H]1NC(=O)[C@H]([C@@H](C)O)NC(=O)[C@H](Cc2ccccc2)NC(=O)CNC(=O)[C@H](Cc2c[nH]c3ccccc23)NC(=O)[C@H](Cc2c[nH]cn2)NC(=O)[C@H](C)NC(=O)[C@@H](N)CCCCNC(=O)C[C@@H](C(N)=O)NC1=O
Consider B1, for which the “IC50 of MMP-2 enzyme inhibition (biotinylated gelatinase substrate cleavage assay)” value in assay [4] was 5.5 µM. Turning to Ac-ACNGRCG (bridge 2-6; also: kind of ring closure not given here, also called control cyclic pentapeptide) [Ac-A-c(CNGRC)-G], the binding result in assay [5] is “no binding”.
